The values that follow come from EP0184291B1, “Polyether antibiotic A80190” (ELI LILLY AND COMPANY, priority 1984, dated 1986).

One assay deals with NRRL 15878. Kind of assay: Resistance to antibiotics, sensitivity discs on seeded ISP No. 2 agar. It is filed as cell-based, Actinomadura oligospora. The method, then:
(§1) Resistance to antibiotics was measured by padding antibiotic sensitivity discs onto the surface of seeded ISP No. 2 agar plates.
(§2) Table III lists the resistance of the strain to various antibiotics at the concentrations indicated and compares it to that of A. macra.

Another assay concerns A. macra. Described as above. The assay is classed as cell-based. The method, then:
as §1, §2

The test system of assay [1] is Eimeria acervulina (Lilly strain 59), Eimeria maxima (strain FS-177) and Eimeria tenella (strain FS-155). Kind of assay: Coccidiosis test in broiler chicks, A80190 with nicarbazin (Test 1). The assay is classed as in vivo. To be noted: A80190 0 p.p.m. in ration.

Take `CC1(C)S[C@@H]2[C@H](NC(=O)Cc3ccccc3)C(=O)N2[C@H]1C(=O)O` [Pencillin G]: the “Resistance to Antibiotics” value with NRRL 15878 (Concentration 10 units) is “+”.
In the case of `CN(C)[C@@H]1C(O)=C(C(N)=O)C(=O)[C@@]2(O)C(O)=C3C(=O)c4c(O)cccc4[C@@](C)(O)[C@H]3C[C@@H]12` [Tetracycline], in the assay with NRRL 15878 (Concentration 30 µg), the “Resistance to Antibiotics” value is recorded as “-”.
In the case of `CO[C@H]1C[C@H](O[C@H]2[C@H](C)[C@@H](O[C@@H]3O[C@H](C)C[C@H](N(C)C)[C@H]3O)[C@@H](C)C[C@@]3(CO3)C(=O)[C@H](C)[C@@H](O)[C@@H](C)[C@@H](C)OC(=O)[C@@H]2C)O[C@@H](C)[C@@H]1O` [Oleandomycin], in the assay on NRRL 15878 (Concentration 15 µg), the “Resistance to Antibiotics” value is on record as “-”.
As to `[H]/N=C(/N)N[C@H]1[C@H](O)[C@@H](O)[C@H](O[C@@H]2O[C@@H](C)[C@](O)(C=O)[C@H]2O[C@@H]2O[C@@H](CO)[C@H](O)[C@@H](O)[C@@H]2NC)[C@@H](N/C(N)=N\[H])[C@@H]1O` [Streptomycin], the “Resistance to Antibiotics” value with NRRL 15878 (Concentration 10 µg) is “-”.
Turning to `CCC[C@@H]1C[C@@H](C(=O)N[C@@H]([C@H]2O[C@H](SC)[C@H](O)[C@@H](O)[C@H]2O)[C@@H](C)O)N(C)C1` [Lincomycin], the “Resistance to Antibiotics” value in the assay with A. macra (Concentration 2 µg) and in the assay with NRRL 15878 (Concentration 2 µg) was “+” each time.
Take `CC(=O)OCC1=C(C(=O)O)N2C(=O)[C@@H](NC(=O)Cc3cccs3)[C@H]2SC1` [Cephalothin]: the “Resistance to Antibiotics” value in the assay with NRRL 15878 (Concentration 30 µg) is given as “+”.
With `NC[C@H]1O[C@H](O[C@H]2[C@H](O)[C@@H](O[C@H]3O[C@H](CO)[C@@H](O)[C@H](N)[C@H]3O)[C@H](N)C[C@@H]2N)[C@H](N)C[C@@H]1O` [Tobramycin], the “Resistance to Antibiotics” value with A. macra (Concentration 10 µg) and in the assay with NRRL 15878 (Concentration 10 µg) was “-” throughout.
Nicarbazin [reference compound]: the “CECAL LESION SCORES” value in assay [1] (Nicarbazin 20 p.p.m.) was 3.19; in assay [1] (Nicarbazin 30 p.p.m.), 3.50; in assay [1] (Nicarbazin 40 p.p.m.), 3.17; in assay [1] (Nicarbazin 50 p.p.m.), 3.19; in assay [1] (Nicarbazin 125 p.p.m.), 0.33. Further, the “INTESTINAL LESION SCORES” value is reported as 9.13 in assay [1] (Nicarbazin 20 p.p.m.); 8.88 in assay [1] (Nicarbazin 30 p.p.m.); 8.90 in assay [1] (Nicarbazin 40 p.p.m.); 8.56 in assay [1] (Nicarbazin 50 p.p.m.); 0.08 in assay [1] (Nicarbazin 125 p.p.m.). For the same compound, the “WEIGHT GAIN” value in assay [1] (Nicarbazin 20 p.p.m.) is reported as 159 grams/per chicken; in assay [1] (Nicarbazin 30 p.p.m.), 174 grams/per chicken; in assay [1] (Nicarbazin 40 p.p.m.) it was 211 grams/per chicken; in assay [1] (Nicarbazin 50 p.p.m.), 222 grams/per chicken; in assay [1] (Nicarbazin 125 p.p.m.) it was 279 grams/per chicken.
For the compound `NC[C@@H]1O[C@H](O[C@H]2[C@@H](O)[C@H](O[C@@H]3[C@@H](O)[C@H](N)C[C@H](N)[C@H]3O[C@H]3O[C@H](CN)[C@@H](O)[C@H](O)[C@H]3N)O[C@@H]2CO)[C@H](N)[C@@H](O)[C@@H]1O` [Neomycin], the “Resistance to Antibiotics” value in the assay on A. macra (Concentration 30 µg) and in the assay with NRRL 15878 (Concentration 30 µg) was “-” in each case.
In the case of `CO[C@H]1/C=C/O[C@@]2(C)Oc3c(C)c(O)c4c(O)c(c(/C=N/N5CCN(C)CC5)c(O)c4c3C2=O)NC(=O)/C(C)=C\C=C\[C@H](C)[C@H](O)[C@@H](C)[C@@H](O)[C@@H](C)[C@H](OC(C)=O)[C@@H]1C` [Rifampin], the “Resistance to Antibiotics” value in the assay on NRRL 15878 (Concentration 5 µg) is given as “+”.
